Source: patent US9149038B2, “4-amino-6-(heterocyclic)picolinates and 6-amino-2-(heterocyclic)pyrimidine-4-carboxylates and their use as herbicides” (Dow AgroSciences LLC, priority 2013, dated 2015)
Where two headings read alike, the source gives them in different places.

System: Direct Seeded Rice and weed species
Assay: Postemergence herbicidal activity in direct seeded rice, visual rating after 20-22 days and probit GR20/GR50/GR80/GR90 (Table 14)
Type: in vivo
Settings: for pest or weed control at 17.5 g/ha / pest or weed control at 35 g/ha / pest or weed control at 70 g/ha: post-emergence, 504 h, postemergence; for pest or weed control at 17.5 g/ha: 17.5 g ai/ha; for pest or weed control at 35 g/ha: 35 g ai/ha; for pest or weed control at 70 g/ha: 70 g ai/ha
Outline: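 Visual injury scores (0 = none, 100 = complete kill) taken 20-22 days after treatment and fitted by probit analysis over several doses to give GR20/GR50/GR80/GR90. Plants at 2nd–3rd true leaf in pH about 8.1 loam–sand mix received track-sprayer applications of 187 L/ha containing 1.25% (v/v) crop oil concentrate.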

[1] = BRAPP (broadleaf signalgrass, Brachiaria platyphylla), read-out: Visual Growth Reduction (%) 21 Days After Application BRAPP
[2] = CYPDI (small-flower flatsedge, Cyperus difformis), read-out: Visual Growth Reduction (%) 21 Days After Application CYPDI
[3] = CYPES (yellow nutsedge, Cyperus esculentus), read-out: Visual Growth Reduction (%) 21 Days After Application CYPES
[4] = CYPIR (rice flatsedge, Cyperus iria), read-out: Visual Growth Reduction (%) 21 Days After Application CYPIR
[5] = DIGSA (large crabgrass, Digitaria sanguinalis), read-out: Visual Growth Reduction (%) 21 Days After Application DIGSA
[6] = ECHCG (barnyardgrass, Echinochloa crus-galli), read-out: Visual Growth Reduction (%) 21 Days After Application ECHCG
[7] = ECHCO (junglerice, Echinochloa colonum), read-out: Visual Growth Reduction (%) 21 Days After Application ECHCO
[8] = LEFCH (Chinese sprangletop, Leptochloa chinensis), read-out: Visual Growth Reduction (%) 21 Days After Application LEFCH
[9] = ORYSJ (Oryza sativa, rice crop), read-out: Visual Growth Reduction (%) 21 Days After Application ORYSJ
[10] = ORYSK (Oryza sativa, rice crop), read-out: Visual Growth Reduction (%) 21 Days After Application ORYSK
[11] = SCPJU (Japanese bulrush, Schoenoplectus juncoides Roxb.), read-out: Visual Growth Reduction (%) 21 Days After Application SCPJU
[12] = SEBEX (hemp sesbania, Sesbania exaltata), read-out: Visual Growth Reduction (%) 21 Days After Application SEBEX

SMILES: COC(=O)c1nc(-c2ccc3c(c2F)OC(F)(F)O3)cc(N)c1Cl [Compound 37, Methyl 4-amino-3-chloro-6-(2,2,4-trifluorobenzo-[d][1,3]dioxol-5-yl)picolinate]
- GR50 BRAPP (BRAPP (Brachiaria platyphylla), probit analysis, dose for 50 percent growth reduction): 3 g ai/ha
- GR80 BRAPP (BRAPP (Brachiaria platyphylla), probit analysis, dose for 80 percent growth reduction): 15 g ai/ha
- GR90 BRAPP (BRAPP (Brachiaria platyphylla), probit analysis, dose for 90 percent growth reduction): 39 g ai/ha
- GR50 CYPDI (CYPDI (Cyperus difformis), probit analysis, dose for 50 percent growth reduction): 0.04 g ai/ha
- GR80 CYPDI (CYPDI (Cyperus difformis), probit analysis, dose for 80 percent growth reduction): 1 g ai/ha
- GR90 CYPDI (CYPDI (Cyperus difformis), probit analysis, dose for 90 percent growth reduction): 2 g ai/ha
- GR50 CYPES (CYPES (Cyperus esculentus), probit analysis, dose for 50 percent growth reduction): <18 g ai/ha
- GR80 CYPES (CYPES (Cyperus esculentus), probit analysis, dose for 80 percent growth reduction): <18 g ai/ha
- GR90 CYPES (CYPES (Cyperus esculentus), probit analysis, dose for 90 percent growth reduction): <18 g ai/ha
- GR50 CYPIR (CYPIR (Cyperus iria), probit analysis, dose for 50 percent growth reduction): 6 g ai/ha
- GR80 CYPIR (CYPIR (Cyperus iria), probit analysis, dose for 80 percent growth reduction): 23 g ai/ha
- GR90 CYPIR (CYPIR (Cyperus iria), probit analysis, dose for 90 percent growth reduction): 46 g ai/ha
- GR50 DIGSA (DIGSA (Digitaria sanguinalis), probit analysis, dose for 50 percent growth reduction): 0.07 g ai/ha
- GR80 DIGSA (DIGSA (Digitaria sanguinalis), probit analysis, dose for 80 percent growth reduction): 2 g ai/ha
- GR90 DIGSA (DIGSA (Digitaria sanguinalis), probit analysis, dose for 90 percent growth reduction): 8 g ai/ha
- GR50 ECHCG (ECHCG (Echinochloa crus-galli), probit analysis, dose for 50 percent growth reduction): 0.33 g ai/ha
- GR80 ECHCG (ECHCG (Echinochloa crus-galli), probit analysis, dose for 80 percent growth reduction): 4 g ai/ha
- GR90 ECHCG (ECHCG (Echinochloa crus-galli), probit analysis, dose for 90 percent growth reduction): 17 g ai/ha
- GR50 ECHCO (ECHCO (Echinochloa colonum), probit analysis, dose for 50 percent growth reduction): 0.001 g ai/ha
- GR80 ECHCO (ECHCO (Echinochloa colonum), probit analysis, dose for 80 percent growth reduction): 0.2 g ai/ha
- GR90 ECHCO (ECHCO (Echinochloa colonum), probit analysis, dose for 90 percent growth reduction): 3 g ai/ha
- GR50 LEFCH (LEFCH (Leptochloa chinensis), probit analysis, dose for 50 percent growth reduction): 116 g ai/ha
- GR80 LEFCH (LEFCH (Leptochloa chinensis), probit analysis, dose for 80 percent growth reduction): 288 g ai/ha
- GR90 LEFCH (LEFCH (Leptochloa chinensis), probit analysis, dose for 90 percent growth reduction): 464 g ai/ha
- GR20 ORYSJ (ORYSJ (Oryza sativa, rice crop), probit analysis, dose for 20 percent growth reduction): 56 g ai/ha
- GR20 ORYSK (ORYSK (Oryza sativa, rice crop), probit analysis, dose for 20 percent growth reduction): 70 g ai/ha
- GR50 SCPJU (SCPJU (Schoenoplectus juncoides Roxb.), probit analysis, dose for 50 percent growth reduction): 0.0001 g ai/ha
- GR80 SCPJU (SCPJU (Schoenoplectus juncoides Roxb.), probit analysis, dose for 80 percent growth reduction): 0.0001 g ai/ha
- GR90 SCPJU (SCPJU (Schoenoplectus juncoides Roxb.), probit analysis, dose for 90 percent growth reduction): 0.0001 g ai/ha
- GR50 SEBEX (SEBEX (Sesbania exaltata), probit analysis, dose for 50 percent growth reduction): 2 g ai/ha
- GR80 SEBEX (SEBEX (Sesbania exaltata), probit analysis, dose for 80 percent growth reduction): 15 g ai/ha
- GR90 SEBEX (SEBEX (Sesbania exaltata), probit analysis, dose for 90 percent growth reduction): 47 g ai/ha
- pest or weed control at 17.5 g/ha [1]: 60 to 74%
- pest or weed control at 35 g/ha [1]: 85 to 94%
- pest or weed control at 70 g/ha [1]: 95 to 100%
- pest or weed control at 17.5 g/ha [2]: 95 to 100%
- pest or weed control at 35 g/ha [2]: 95 to 100%
- pest or weed control at 70 g/ha [2]: 95 to 100%
- pest or weed control at 17.5 g/ha [3]: 75 to 84%
- pest or weed control at 35 g/ha [3]: 85 to 94%
- pest or weed control at 70 g/ha [3]: 95 to 100%
- pest or weed control at 17.5 g/ha [4]: 85 to 94%
- pest or weed control at 35 g/ha [4]: 45 to 59%
- pest or weed control at 70 g/ha [4]: 95 to 100%
- pest or weed control at 17.5 g/ha [5]: 85 to 94%
- pest or weed control at 35 g/ha [5]: 95 to 100%
- pest or weed control at 70 g/ha [5]: 95 to 100%
- pest or weed control at 17.5 g/ha [6]: 85 to 94%
- pest or weed control at 35 g/ha [6]: 85 to 94%
- pest or weed control at 70 g/ha [6]: 95 to 100%
- pest or weed control at 17.5 g/ha [7]: 85 to 94%
- pest or weed control at 35 g/ha [7]: 95 to 100%
- pest or weed control at 70 g/ha [7]: 95 to 100%
- pest or weed control at 17.5 g/ha [8]: 0 to 29%
- pest or weed control at 35 g/ha [8]: 0 to 29%
- pest or weed control at 70 g/ha [8]: 45 to 59%
- pest or weed control at 17.5 g/ha [9]: 0 to 29%
- pest or weed control at 35 g/ha [9]: 0 to 29%
- pest or weed control at 70 g/ha [9]: 30 to 44%
- pest or weed control at 17.5 g/ha [10]: 0 to 29%
- pest or weed control at 35 g/ha [10]: 0 to 29%
- pest or weed control at 70 g/ha [10]: 0 to 29%
- pest or weed control at 17.5 g/ha [11]: 95 to 100%
- pest or weed control at 35 g/ha [11]: 95 to 100%
- pest or weed control at 70 g/ha [11]: 95 to 100%
- pest or weed control at 17.5 g/ha [12]: 75 to 84%
- pest or weed control at 35 g/ha [12]: 85 to 94%
- pest or weed control at 70 g/ha [12]: 95 to 100%
